Patent publication US10709750B2, “Female menopause alleviation use of composition containing composite extract of red clover and pomegranate as active ingredient” (HLSCIENCE CO., LTD, priority 2014, dated 2020)

Experiments:
Format in all cases: in vivo
Settings in all cases: 120 mg/kg po; estradiol 0.03 μg/head sc
OVX ddY mice [1] = experiment: Serum biochemistry in OVX ddY mice
Procedure: (§1) Optimal amounts of red clover extract or pomegranate extract were suspended or dissolved in sterile distilled water, and orally administered at a dose of 10 ml/kg once daily for 84 days from 28 days after OVX. That is, red clover extract and pomegranate extract single formula, and red clover:pomegranate extract 1:1, 1:2, 1:4, 1:6, 1:8, 2:1, 4:1, 6:1 and 8:1 (g/g) mixture 120 mg/kg were each orally administered for 84 days, and sham control and OVX control were orally administered with only sterile distilled water as a vehicle at the same dose for the same period instead of the test material, and according to earlier researchers' method [Chiba et al., 2003; Murakami et al., 2007; Tousen et al., 2011], 0.03 ug of 17β-estradiol (Sigma-Aldrich, St. Louise, Mo., USA) was dissolved in 0.2 ml of sterile saline, and subcutaneously administered to back skin at a dose of 0.2 ml/mouse (0.03 μg/head/day) once daily for 84 days from 28 days after OVX surgery (Table 15, FIG. 18). The administration dose of mixed formula was set higher 12 times than a human clinical dose of 600 mg, i.e., 600 mg/60 kg)×12=120 mg/kg, in consideration of a body surface area of mouse, and the dose of each of red clover extract and pomegranate extract single formula was also set as 120 mg/kg for direct comparative evaluation of efficacy.
(§2) More specifically, the anti-obesity and estrogen-like effects were tested as follows. The body weights on OVX surgery date, 1 day before administration (27 days after OVX), the start date of administration, and from the first day after start of administration up to the time of final sacrifice at least once a week were each recorded, and change amounts of body weights, i.e., body weight gains, for the recovery period after OVX (menopausal disorder induction period) and 12 weeks after start of administration were measured. Food consumption (1, 3, 7, 28, 56 and 83 days after start of administration), serum estradiol levels, amounts of body fat and abdominal fat, weights of abdominal fat pad and uterus, histological changes of uterus and abdominal fat pads (changes in abdominal fat pad thickness and mean adipocyte diameter, thickness of uterus total, epithelium and mucosa, and percentage of uterine glands in the mucosa (FIG. 19) were observed.
(§3) Furthermore, to ascertain the protective effect against fatty liver, testing was conducted as follows. Liver weight, serum AST and ALT levels, and histological changes of liver (changes in mean hepatocyte diameter and region with hepatic degeneration showing fatty change) were observed.
The hyperlipidemia inhibitory effect was ascertained through changes in serum TC, LDL, HDL and TG levels.
(§4) The osteoporosis reduction effect was ascertained through histological changes in wet, dry and ash weights of femurs, BMD (FIG. 20), bone strength (FIG. 21), serum osteocalcin and bALP levels, bone mass and structure (trabecular bone mass, trabecular bone number, thickness and length, and cortical bone thickness), and bone resorption (osteoclast cell number and osteoclast cell surface (OS/BS)).

OVX ddY mice [2] = experiment: Bone mineral density and fat density (DEXA) in OVX ddY mice
Procedure: as §1, §2, §4

OVX ddY mice [3] = experiment: Femur bone strength (failure load) in OVX ddY mice
Procedure: Bone strength is measured through failure load (FL).
as §1, with “efficacy. […]” for “efficacy.”

OVX ddY mice [4] = experiment: Histology of abdominal fat pad, uterus and liver in OVX ddY mice
Procedure: as §1, §2, §3

OVX ddY mice [5] = experiment: Femur histomorphometry in OVX ddY mice
Procedure: as §1, §4

## C[C@]12CC[C@@H]3c4ccc(O)cc4CC[C@H]3[C@@H]1CC[C@@H]2O [Estradiol, 17β-estradiol]
OVX ddY mice [1]
  Change in serum estradiol level vs OVX control: 185.69%
  Change in serum osteocalcin level vs OVX control: −31.95%
  Serum ALT: 52.00 ± 10.03^ac U/L
  Serum AST: 107.13 ± 12.43^ac U/L
  Serum HDL: 72.63 ± 11.04^ac mg/dl
  Serum LDL: 133.00 ± 10.54^ac mg/dl
  Serum TC: 132.75 ± 21.06^ac mg/dl
  Serum TG: 97.88 ± 18.16^ac mg/dl
OVX ddY mice [2]
  Bone mineral density, right femur: 0.0259 ± 0.0008^bc g/cm^2
  Bone mineral density, total body: 0.0237 ± 0.0004^ac g/cm^2
  Change in amount of abdominal fat vs OVX control: −35.00%
  Change in amount of body fat vs OVX control: −33.02%
  Change in mean total body bone mineral density vs OVX control: 9.86%
  Change in total femur bone mineral density vs OVX control: 10.78%
  Fat density, abdominal cavity: 26.75 ± 4.22^ac % of body mass
  Fat density, total body: 23.42 ± 4.24^ac % of body mass
OVX ddY mice [3]
  Change in bone strength of femur mid-shaft region vs OVX control: 61.41%
OVX ddY mice [4]
  Change in abdominal fat pad thickness vs OVX control: −52.23%
  Change in mean adipocyte diameter vs OVX control: −48.06%
  Change in mean hepatocyte diameter vs OVX control: −42.21%
  Change in percentage of uterine glands in the uterine mucosa vs OVX control: 180.37%
  Change in region with hepatic fatty degeneration vs OVX control: −44.73%
  Change in uterine epithelium mean thickness vs OVX control: 170.17%
  Change in uterine mucosa mean thickness vs OVX control: 196.04%
  Change in uterus total mean thickness vs OVX control: 181.27%
  Hepatic steatosis regions: 43.43 ± 6.53^ac %
  Left uterine horn epithelium thickness: 20.75 ± 4.52^ac μm
  Left uterine horn mucosa layer thickness: 598.74 ± 153.51^ac μm
  Left uterine horn total thickness: 1593.32 ± 371.85^bc μm
  Mean adipocyte diameters: 67.49 ± 14.77^ac μm
  Mean hepatocyte diameters: 18.45 ± 3.66^ac μm
  Uterine gland regions: 34.93 ± 4.60^ac %
OVX ddY mice [5]
  Change in femur OS/BS vs OVX control: −37.50%
  Change in femur cortical bone thickness vs OVX control: 21.85%
  Change in femur mean trabecular bone number vs OVX control: 92.68%
  Change in femur osteoclast cell number vs OVX control: −55.15%
  Change in femur trabecular bone mass vs OVX control: 73.01%
  Change in mean length of femur trabecular bone vs OVX control: 89.04%
  Change in mean thickness of femur trabecular bone vs OVX control: 70.56%
  Left femur Cbt: 184.17 ± 8.40^eg
  Left femur OS/BS: 13.12 ± 1.41^eg
  Left femur Ocn: 7.63 ± 1.06^ab
  Left femur TV/BV: 29.89 ± 5.24^ab
  Left femur Tbl: 905.51 ± 146.34^g
  Left femur Tbn: 9.88 ± 1.36^eg
  Left femur Tbt: 55.34 ± 8.99^eg
